Experimental data as given in PMC10303363, “Synthesis and Preclinical Evaluation of Novel ^68Ga-Labeled (R)-Pyrrolidin-2-yl-boronic Acid-Based PET Tracers for Fibroblast Activation Protein-Targeted Cancer Imaging” (Pharmaceuticals, 2023).
Where “and” joins values, the source holds several entries; their conditions need not be identical. Identical values can stand only once.

Key:
PREP = conditions: cited from earlier work
DPPs = conditions: cited from earlier work
FAP = conditions: cited from earlier work
[1] = test system: HEK293T:hFAP tumor-bearing mice; assay: Ex vivo biodistribution study; type: in vivo; conditions: 1 h pi; for Adrenal Glands uptake / Blood uptake / Bone uptake / Brain uptake / Fat uptake / Heart uptake / Kidneys uptake / Large Intestines uptake / Liver uptake / Lungs uptake / Muscle uptake / Pancreas uptake / Small Intestine uptake / Spleen uptake / Stomach uptake / Testes uptake / Thyroid uptake / Tumor uptake / Tumor/Blood uptake ratio / Tumor/Bone uptake ratio / Tumor/Kidney uptake ratio / Tumor/Muscle uptake ratio: n = 4
Protocol: (§1) Imaging and biodistribution studies were performed using immunodeficient male NRG (NOD.Cg-Rag1tm1Mom Il2rgtm1Wjl/SzJ) mice following previously reported procedures. All experiments were conducted according to the guidelines established by the Canadian Council on Animal Care and approved by Animal Ethics Committee of the University of British Columbia. The mice were subcutaneously inoculated with 7.5 × 10^6 HEK293T:hFAP cells in the left dorsal flank. When the tumors grew to 6–8 mm in diameter, the mice were used for PET/CT imaging and biodistribution studies.
For the biodistribution studies, the mice were injected with ~1–2 MBq of the ^68Ga-labeled tracer, using the exact procedures as described above. At 1 h pi, the mice were euthanized by CO2 inhalation. Blood was withdrawn by a cardiac puncture, and the organs/tissues of interest were collected, weighed and counted using a Perkin Elmer (Waltham, MA, USA) Wizard2 2480 automatic gamma counter. The uptake values in percent of injected dose per gram of tissues (%ID/g) for the different tracers were calculated.
(§2) For blocking studies, HEK293T:hFAP tumor-bearing mice were co-injected [^68Ga]Ga-SB04028 with an excess of FAPI-04 (0.5 mg/mouse) as a competitor. Imaging and biodistribution studies were performed at 1 h pi similar to the unblocked mice.

[2] = test system: HEK293T:hFAP tumor xenograft; assay: PET/CT imaging; type: in vivo, mice; conditions: 1 h pi; for tumor on PET/CT image: HEK293T:hFAP tumor xenograft, unblocked
Protocol: as §1
The PET/CT imaging experiments were carried out using a Siemens Inveon micro PET/CT scanner (Knoxville, TN, USA). Tumor-bearing mice were injected with ~4 to 6 MBq of ^68Ga-labeled tracer through a lateral caudal tail vein under 2.5% isoflurane in oxygen anesthesia, followed by recovery and free roaming in their cage during the uptake period. A 10 min localization CT scan was acquired using 3 overlapping positions to cover the entire mouse. The CT scan was used for the attenuation and scatter correction, and anatomical localization. A list mode acquisition was then performed for 15 min at 1 h pi with the mouse under isoflurane sedation. The images were reconstructed using 3D OSEM/MAP iterative methods.
as §2

[3] = In vivo stability study (radio-HPLC of plasma and urine); design: species or system mice; conditions: 15 min pi; for fraction of tracer remaining intact in plasma / fraction of tracer remaining intact in urine: male NRG mice, n = 3
Protocol: In vivo stability studies were performed using healthy (non-tumor-bearing) male NRG mice following previously reported procedures. Briefly, [^68Ga]Ga-SB02055 (6.32 ± 0.16 MBq) and [^68Ga]Ga-SB04028 (9.90 ± 0.26 MBq) were injected via the lateral caudal vein into the mice (n = 3). At 15 min pi, the mice were sedated and euthanized, and urine and blood were collected. The blood was processed to obtain plasma by adding 0.5 mL of acetonitrile to 0.5–0.8 mL of whole blood, then vortexing and centrifuging the resulting mixture on a benchtop mini-centrifuge (Fisherbrand™ Mini-Centrifuge 100–240 V, 50/60 Hz Universal Plug) for 20 min. The supernatant was collected and filtered to give the blood plasma. The plasma and urine samples were analyzed via radio-HPLC by using the same conditions as those used for quality control of these ^68Ga-labeled radioligands.

[4] = test system: HEK-mFAP murine tumor model; design: method as in doi:10.1158/1538-7445.AM2022-3303; conditions: single dose; cited from earlier work
tumor = test system: tumor; design: method as in doi:10.1158/1538-7445.AM2022-3303; conditions: up to 168 h pi; cited from earlier work
[5] = design: method as in PMID 35631416; conditions: patients, after administrating 740 MBq; cited from earlier work
[6] = HEK293T:hFAP tumor-bearing male NRG mice, unblocked
[7] = HEK293T:hFAP tumor-bearing mice
[8] = HEK293T:hFAP tumor-bearing mice, blocked: co-injected with FAPI-04 (0.5 mg/mouse)

Molecule: CC(NC(=O)c1ccc(CNC(=O)CN2CCN(CC(=O)[O-])CCN(CC(=O)[O-])CCN(CC(=O)[O-])CC2)cc1)C(=O)N1CCCC1B(O)O.[68Ga+3] (centres unmarked) [[^68Ga]Ga-PNT6555, reference compound]
- Adrenal Glands uptake [1, 6]: 0.56 ± 0.89 %ID/g
- Blood uptake [1, 6]: 0.60 ± 0.04 %ID/g
- Bone uptake [1, 6]: 0.45 ± 0.12 %ID/g
- Brain uptake [1, 6]: 0.02 ± 0.00 %ID/g
- Fat uptake [1, 6]: 0.06 ± 0.02 %ID/g
- Heart uptake [1, 6]: 0.17 ± 0.01 %ID/g
- Kidneys uptake [1, 6]: 2.29 ± 0.43 %ID/g
- Large Intestines uptake [1, 6]: 0.11 ± 0.03 %ID/g
- Liver uptake [1, 6]: 1.49 ± 0.11 %ID/g
- Lungs uptake [1, 6]: 0.42 ± 0.04 %ID/g
- Muscle uptake [1, 6]: 0.12 ± 0.02 %ID/g
- Pancreas uptake [1, 6]: 0.13 ± 0.02 %ID/g
- Small Intestine uptake [1, 6]: 0.64 ± 0.10 %ID/g
- Spleen uptake [1, 6]: 0.21 ± 0.08 %ID/g
- Stomach uptake [1, 6]: 0.11 ± 0.05 %ID/g
- Testes uptake [1, 6]: 0.16 ± 0.03 %ID/g
- Thyroid uptake [1, 6]: 0.26 ± 0.02 %ID/g
- Tumor uptake [1, 6]: 6.38 ± 0.45 %ID/g
- Tumor/Blood uptake ratio [1, 6]: 10.7 ± 1.29
- Tumor/Bone uptake ratio [1, 6]: 14.9 ± 3.34
- Tumor/Kidney uptake ratio [1, 6]: 2.87 ± 0.59
- Tumor/Muscle uptake ratio [1, 6]: 52.6 ± 5.86

Molecule: O=C([O-])CN1CCN(CC(=O)[O-])CCN(CC(=O)N2CCN(CCCOc3ccc4nccc(C(=O)NCC(=O)N5CCCC5B(O)O)c4c3)CC2)CCN(CC(=O)[O-])CC1.[68Ga+3] (centres unmarked) [[^68Ga]Ga-SB02055]
- tumor on PET/CT image [2]: negligible
- Adrenal Glands uptake [1, 6]: 1.17 ± 1.13 %ID/g
- Blood uptake [1, 6]: 3.13 ± 1.25 %ID/g
- Bone uptake [1, 6]: 1.14 ± 0.37 %ID/g
- Brain uptake [1, 6]: 0.05 ± 0.02 %ID/g
- Fat uptake [1, 6]: 0.16 ± 0.05 %ID/g
- Heart uptake [1, 6]: 1.23 ± 0.48 %ID/g
- Kidneys uptake [1, 6]: 1.74 ± 0.95 %ID/g
- Large Intestines uptake [1, 6]: 0.56 ± 0.24 %ID/g
- Liver uptake [1, 6]: 0.94 ± 0.27 %ID/g
- Lungs uptake [1, 6]: 1.20 ± 0.35 %ID/g
- Muscle uptake [1, 6]: 0.63 ± 0.20 %ID/g
- Pancreas uptake [1, 6]: 2.07 ± 0.83 %ID/g
- Small Intestine uptake [1, 6]: 0.80 ± 0.29 %ID/g
- Spleen uptake [1, 6]: 0.85 ± 0.27 %ID/g
- Stomach uptake [1, 6]: 0.53 ± 0.36 %ID/g
- Testes uptake [1, 6]: 0.26 ± 0.10 %ID/g
- Thyroid uptake [1, 6]: 1.49 ± 0.47 %ID/g
- Tumor uptake [1, 6]: 1.08 ± 0.37 %ID/g
- Tumor/Blood uptake ratio [1, 6]: 0.35 ± 0.03
- Tumor/Bone uptake ratio [1, 6]: 0.95 ± 0.06
- Tumor/Kidney uptake ratio [1, 6]: 0.67 ± 0.15
- Tumor/Muscle uptake ratio [1, 6]: 1.72 ± 0.19
- fold lower tumor uptake than [68Ga]Ga-PNT6555 [1, 7]: ~ 6 fold
- fraction of tracer remaining intact in plasma [3]: no intact
- fraction of tracer remaining intact in urine [3]: 93.5 ± 0.91% and > 93%
- plasma fraction of unidentified highly hydrophilic 68Ga-labeled species ([3]; mouse plasma): > 99%

Molecule: CC(NC(=O)c1ccnc2ccc(OCCCN3CCN(C(=O)CN4CCN(CC(=O)[O-])CCN(CC(=O)[O-])CCN(CC(=O)[O-])CC4)CC3)cc12)C(=O)N1CCCC1B(O)O.[68Ga+3] (centres unmarked) [[^68Ga]Ga-SB04028]
- tumor uptake on PET/CT image upon co-injection with FAPI-04 ([2]; FAPI-04 0.5 mg/mouse): reduced the tumor uptake to the background level
- tumor on PET/CT image [2]: clear visualization
- reduction of average tumor uptake upon co-injection with FAPI-04 ([1]; FAPI-04 0.5 mg/mouse, HEK293T:hFAP tumor-bearing mice): ~ 97%
- Adrenal Glands uptake [1, 6]: 0.14 ± 0.10 %ID/g
- Blood uptake [1, 6]: 0.97 ± 0.03 %ID/g
- Bone uptake [1, 6]: 0.24 ± 0.09 %ID/g
- Brain uptake [1, 6]: 0.02 ± 0.00 %ID/g
- Fat uptake [1, 6]: 0.07 ± 0.01 %ID/g
- Heart uptake [1, 6]: 0.24 ± 0.02 %ID/g
- Kidneys uptake [1, 6]: 2.10 ± 0.33 %ID/g
- Large Intestines uptake [1, 6]: 0.13 ± 0.03 %ID/g
- Liver uptake [1, 6]: 0.32 ± 0.03 %ID/g
- Lungs uptake [1, 6]: 0.59 ± 0.04 %ID/g
- Muscle uptake [1, 6]: 0.13 ± 0.01 %ID/g
- Pancreas uptake [1, 6]: 0.18 ± 0.02 %ID/g
- Small Intestine uptake [1, 6]: 0.34 ± 0.02 %ID/g
- Spleen uptake [1, 6]: 0.25 ± 0.04 %ID/g
- Stomach uptake [1, 6]: 0.06 ± 0.01 %ID/g
- Testes uptake [1, 6]: 0.18 ± 0.02 %ID/g
- Thyroid uptake [1, 6]: 0.35 ± 0.00 %ID/g
- Tumor uptake [1, 6]: 10.1 ± 0.42 %ID/g
- Tumor/Blood uptake ratio [1, 6]: 10.4 ± 0.70
- Tumor/Bone uptake ratio [1, 6]: 48.1 ± 20.5
- Tumor/Kidney uptake ratio [1, 6]: 4.89 ± 0.72
- Tumor/Muscle uptake ratio [1, 6]: 79.9 ± 7.50
- fold higher tumor uptake compared to [68Ga]Ga-PNT6555 [1, 7]: ~ 1.5 fold and > 1.5 fold
- Adrenal Glands uptake [1, 8]: 0.09 ± 0.06 %ID/g
- Blood uptake [1, 8]: 0.49 ± 0.13 %ID/g
- Bone uptake [1, 8]: 0.01 ± 0.00 %ID/g
- Brain uptake [1, 8]: 0.02 ± 0.00 %ID/g
- Fat uptake [1, 8]: 0.14 ± 0.13 %ID/g
- Heart uptake [1, 8]: 0.11 ± 0.00 %ID/g
- Kidneys uptake [1, 8]: 2.53 ± 0.57 %ID/g
- Large Intestines uptake [1, 8]: 0.08 ± 0.03 %ID/g
- Liver uptake [1, 8]: 0.30 ± 0.05 %ID/g
- Lungs uptake [1, 8]: 0.78 ± 0.37 %ID/g
- Muscle uptake [1, 8]: 0.66 ± 0.12 %ID/g
- Pancreas uptake [1, 8]: 0.09 ± 0.02 %ID/g
- Small Intestine uptake [1, 8]: 0.34 ± 0.04 %ID/g
- Spleen uptake [1, 8]: 0.18 ± 0.02 %ID/g
- Stomach uptake [1, 8]: 0.03 ± 0.00 %ID/g
- Testes uptake [1, 8]: 0.12 ± 0.01 %ID/g
- Thyroid uptake [1, 8]: 0.14 ± 0.01 %ID/g
- Tumor uptake [1, 8]: 0.30 ± 0.04 %ID/g
- Tumor/Blood uptake ratio [1, 8]: 0.63 ± 0.09
- Tumor/Bone uptake ratio [1, 8]: 33.9 ± 13.3
- Tumor/Kidney uptake ratio [1, 8]: 0.12 ± 0.03
- Tumor/Muscle uptake ratio [1, 8]: 0.46 ± 0.06
- fraction of tracer remaining intact in plasma [3]: 46.6 ± 0.21%
- fraction of tracer remaining intact in urine [3]: 53.6 ± 7.11% and > 54%

Molecule: CC(NC(=O)c1ccc(CNC(=O)CN2CCN(CC(=O)[O-])CCN(CC(=O)[O-])CCN(CC(=O)[O-])CC2)cc1)C(=O)N1CCCC1B(O)O.[177Lu+3] (centres unmarked) [[^177Lu]Lu-PNT6555]
- anti-tumor efficacy [4]: dose-dependent anti-tumor efficacy
- tumor retention (tumor): > 10 %ID/g

Molecule: CC(NC(=O)c1ccc(CNC(=O)CN2CCN(CC(=O)[O-])CCN(CC(=O)[O-])CCN(CC(=O)[O-])CC2)cc1)C(=O)N1CCCC1B(O)O.[225Ac+3] (centres unmarked) [[^225Ac]Ac-PNT6555]
- anti-tumor efficacy [4]: dose-dependent anti-tumor efficacy

Molecule: [^99mTc]Tc-HYNIC-D-Ala-boroPro [[^99mTc]Tc-iFAP]
- effective dose [5]: 2.3 ± 0.4 mSv
- mean radiation equivalent dose for the kidney [5]: 5.2 ± 0.8 mSv
